The conditions of data set [1]: in particular in solution; contact with light; cited from earlier work.
For data set [2], the system named is touch-sensitive tendrils of Bryonia dioica. Description: Tendril coiling of Bryonia dioica shoots. To be noted: for tendril coiling 10 μm concentration / tendril coiling 100 μm concentration / tendril coiling at 500 μm concentration: followed over 20 h. In kind it is in vivo. The arrangement: key to tendril coiling at 500 μm concentration / tendril coiling 100 μm concentration / tendril coiling 10 μm concentration: −: no coiling; +: minor coiling; ++: Considerable coiling; +++: intense coiling. On the procedure:
Tendril coiling: To test the ability of the conjugates to induce tendril coiling, shoots of Bryonia dioica with the youngest, most well-developed tendrils were cut and immediately placed into vials with the test solution (2 ml) with the indanoyl conjugates (5-1000 μM) or coronatine (5-100 μM) and the extent of coiling was followed over a period of 20 h. The efficacy of the compounds as to their ability to induce tendril coiling was evaluated by the experimentator accordihg to the following scale: […]

The test system of data set [3] is Lima bean Phaseolus lunatus. Description: Induction of volatile emission in cut Lima bean plantlets (headspace collection, GC-MS). In kind it is in vivo. The conditions noted are these: for induction of C16 terpenoid TMTT emission / induction of methyl salicylate emission: volatile blend, FIG. 2. On the procedure: Plant material: Induction experiments were performed with plantlets of the Lima bean Phaseolus lunatus (Ferry Morse cv. Jackson Wonder Bush). Individual plants were grown from seed in a plastic pot (Ø=5.5 cm) at 23° C. and 80% humidity using daylight fluorescent tubes at ca. 270 μE m^2 st^−1 with a photophase of 14 h. Experiments were conducted with 12-16 day-old seedlings showing two fully developed leaves.
Induction experiments: Plantlets of P. lunatus with two fully developed primary leaves were cut with razor blades and immediately transferred into Eppendorf vials containing a solution of the test-substance in tap water (100 μl). Solutions of the unsubstituted prior art compound indanoyl-L-isoleucine and of 6 -ethyl indanoyl-L-isoleucine methyl ester according to the invention were applied at 10, 100 and 1000 μM. Coronatne was used as a 100 μM aqueous solution. After uptake of the solution, the plantlets were placed into vials with tap water (5 ml) and were enclosed in small desiccators (750 ml) and maintained at 25° C. for 24 h. Control experiments were conducted under identical conditions by placing freshly cut plantlets into tap water. All experiments were carried out in triplicate.
Collection and analysis of headspace volatiles: The volatiles emitted from the pre-treated plants were collected continuously on small charcoal traps (1 mg charcoal, CLSA-Filter, Le Ruisseau de Montbrun, F-09350 Daumazan sur Arize, France) over a period of 24 h using air circulation as described in J. Donath and W. Boland, Phytochemistry 1995, 39, 785-790.
After desorption of the volatiles from the carbon trap with 40 μl of a solution of 1-bromodecane (internal standard, 50 μM) in dichloromethane. The extracts were directly analysed by GC/MS. GC-conditions: Fused-silica capillary (30 m×0.25 mm) coated with DB 5 (0.25 μm). Helium at […] served as carrier gas. Separation of the compounds was achieved under programmed conditions (50° C. for 2 min, then at 10° C. min^−1 to 200° C., finally at 35° C. min^−1 to 280° C.). MS: Finnigan GCQ; GC-interface at 265° C.; scan range 35-450 Da. Individual compounds (peak area) were quantified with respect to the peak area of the internal standard.

The test system of data set [4] is internal level of salicylic acid in plants. Description: Internal level of salicylic acid in pre-treated plants. In kind it is in vivo. To be noted: plants pre-treated with the compound.

As to “6-azido-1-oxo-indanoyl isoleucine derivative”, the stability entry in data set [1] is on record as “unstable”.
Consider `CC[C@H](C)[C@H](NC(=O)c1cccc2c1CCC2=O)C(=O)OC` [1-oxo-indanoyl isoleucine methyl ester, 1-oxo-indanoyl-isoleucine methyl ester], for which, in data set [2], the “tendril coiling 10 μm concentration” value is reported as “−”, the “tendril coiling 100 μm concentration” value was “+” and the “tendril coiling at 500 μm concentration” value was “++”. The “concentration necessary to induce a coiling response” value in data set [2] (tendrils of Bryonia dioica) is recorded as “about 1 mM”.
In the case of `CCc1cc2c(c(C(=O)NC(C(=O)OC)C(C)CC)c1)CCC2=O` (stereo not drawn) [2-[(6-Ethyl-1-oxo-indane-4-carbonyl)-amino]-3-methyl-pentanoic acid methyl ester], the “up-regulation of biosynthesis of 4,8-dimethyl-nona-1,3,7-triene (DMNT)” value in data set [3] (compared with the unsubstituted prior art compound) was “much more pronounced”. Besides, the threshold concentration entry in data set [3] (induction of volatiles) was “less than 10 μM”. Besides, in data set [3], the “induction of C16 terpenoid TMTT emission” value is “induced” and the “induction of methyl salicylate emission” value is reported as “induced”. Besides, the “fold more active than the prior art compound unsubstituted at the 6-position” value in data set [3] (volatile induction, relative to 1-oxo-indanoyl-isoleucine methyl ester) is recorded as 30-50 fold. In data set [2], the “tendril coiling 10 μm concentration” value is “+”, the “tendril coiling 100 μm concentration” value is given as “+++” and the “tendril coiling at 500 μm concentration” value was “+++”. Also, the “concentration inducing the coiling reaction (threshold concentration)” value in data set [2] (tendrils of Bryonia dioica) amounted to 20 µM. The “increase of salicylate (internal level of salicylic acid)” value in data set [4] amounted to 8 fold.
With `CCC1CC1(NC(=O)C1=C[C@H](CC)C[C@@H]2C(=O)CC[C@H]12)C(=O)O` (stereo partly drawn) [coronatine], in data set [3], the “induction of C16 terpenoid TMTT emission” value was “induced” and the “induction of methyl salicylate emission” value was “induced”. Also, in data set [2], the “tendril coiling 10 μm concentration” value is given as “++”, the “tendril coiling 100 μm concentration” value was “+++” and the “tendril coiling at 500 μm concentration” value is listed as “+++”. In data set [2] (tendrils of Bryonia dioica), the “concentration inducing the coiling reaction (threshold concentration)” value is given as “about 2 μM”.

Source of the values: US20040087655A1, “6-Substituted indanoyl amino acid conjugates as mimics to the biological activity of coronatine” (priority 2001, published 2004).
